# Laboratory results reported in PMC7055011 (Bioorganic & medicinal chemistry, 2019).
# Columns and labels:
# [1] = Human liver microsomal stability; type: in vitro ADME; conditions: for CLint scaled at 2 h, 1 µM: human, microsomes, pH 7.4
# [2] = target: T1, human angiotensin II receptor, type I (Homo sapiens, UniProt P30556); conditions: cited from earlier work
# T1 sequence (P30556 1-359): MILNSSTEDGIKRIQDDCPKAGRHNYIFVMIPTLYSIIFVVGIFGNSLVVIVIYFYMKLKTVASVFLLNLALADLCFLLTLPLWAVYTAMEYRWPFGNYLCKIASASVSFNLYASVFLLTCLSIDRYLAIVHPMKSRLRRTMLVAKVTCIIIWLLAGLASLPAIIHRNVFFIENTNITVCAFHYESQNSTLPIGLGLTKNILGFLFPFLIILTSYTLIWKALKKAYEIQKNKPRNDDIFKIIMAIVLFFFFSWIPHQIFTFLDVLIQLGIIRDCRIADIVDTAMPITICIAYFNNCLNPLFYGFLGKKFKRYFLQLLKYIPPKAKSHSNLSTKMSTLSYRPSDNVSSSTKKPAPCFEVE
# NTR2 = conditions: compared with hit 8; cited from earlier work
# [3] = cited from earlier work
# [4] = test system: 5-HT1A, α2C adrenergic, mu-opioid, benzylpiperazine receptors and norepinephrine transporter; conditions: cited from earlier work
# [5] = cited from earlier work; remark: listed apart in the source
# hAPJ = target: T2, hAPJ (Homo sapiens, UniProt P35414); experiment: Lance cAMP accumulation assay; type: cell-based
# T2 sequence (P35414 1-380): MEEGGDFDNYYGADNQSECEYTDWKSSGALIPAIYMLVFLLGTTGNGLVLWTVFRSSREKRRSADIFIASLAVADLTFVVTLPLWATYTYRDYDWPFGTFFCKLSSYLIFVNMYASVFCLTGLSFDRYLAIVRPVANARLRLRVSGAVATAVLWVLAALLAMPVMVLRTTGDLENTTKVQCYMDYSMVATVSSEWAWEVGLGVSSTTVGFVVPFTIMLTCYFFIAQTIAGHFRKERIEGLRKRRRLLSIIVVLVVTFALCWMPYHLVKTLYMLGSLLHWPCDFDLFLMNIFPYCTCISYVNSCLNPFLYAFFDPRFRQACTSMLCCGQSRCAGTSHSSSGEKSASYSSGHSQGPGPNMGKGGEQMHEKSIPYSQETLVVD
# apelin receptor = conditions: cited from earlier work
structure (smiles),measurement,setting,value
CCOc1ccc2c(C)cc(=O)oc2c1 [7-ethoxy-4-methylcoumarin],"CLint scaled at 2 h, 1 µM",[1],325 mL/min/kg
"COc1cccc(OC)c1-c1cc(C(=O)N[C@@H](CCC2CCCCC2)CC(=O)O)nn1-c1ccc(F)cc1 [Compound 9, (S)-5-cyclohexyl-3-(5-(2,6-dimethoxyphenyl)-1-(4-fluorophenyl)-1H-pyrazole-3-carboxamido)pentanoic acid]","Activity at AT1 receptor, previously reported",[2],did not activate or inhibit
same,Stability in human liver microsomes,[1],excellent stability
same,"CLint scaled at 2 h, 1 µM",[1],5 mL/min/kg
same,Off-target NTR2 activity,NTR2,significantly reduced
"CC1=CC(=O)C(C2CCCCC2)=C/C1=N\OS(=O)(=O)c1ccccc1 [ML233, (E)-2-cyclohexyl-5-methyl-4-(phenylsulfonyloxyimino)cyclohexa-2,5-dienone]",Solubility,[3],poor solubility
same,Off-target binding,[4],significant off-target binding
same,Stability in microsomal fractions,[5],poor
"COc1cccc(OC)c1-c1cc(C(=O)N[C@@H](CCC2CCCCC2)CC(=O)O)nn1CC1CCCCC1 [Compound 15, (S)-5-Cyclohexyl-3-(1-(cyclohexylmethyl)-5-(2,6-dimethoxyphenyl)-1H-pyrazole-3-carboxamido)pentanoic acid]",Activity in cAMP assay,hAPJ,completely inactive
"COc1cccc(OC)c1-c1cc(C(=O)N[C@@H](CCC2CCCCC2)CC(=O)O)nn1C1CCCCCCC1 [Compound 16, (S)-5-Cyclohexyl-3-(1-cyclooctyl-5-(2,6-dimethoxyphenyl)-1H-pyrazole-3-carboxamido)pentanoic acid]",Activity in cAMP assay,hAPJ,completely inactive
"CCC(CC)n1c(Cc2cccs2)nc2cc(C(=O)N[C@H](CC(=O)O)CC(C)C)ccc21 [CMF-019, (S)-5-Methyl-3-{1-(pentan-3-yl)-2-(thiophen-2-ylmethyl)-1H-benzo[d]imidazole5-carboxamido}hexanoic Acid]",Bias towards Gαi signaling over receptor internalization,apelin receptor,~ 6000 fold
same,Bias towards Gαi signaling over β-arrestin recruitment,apelin receptor,~ 400 fold
